Laboratory results as given in article PMC10477861, “Efficient Mining of Anticancer Peptides from Gut Metagenome” (Advanced Science, 2023).
Where no end group is shown, it is not given here.

Key:
CT26 subcutaneous tumors = assay: CT26 subcutaneous xenograft tumor model in nude mice; format: in vivo; set-up: Mean Diff, tumor volume growth, Control vs. peptide (Dunnett's multiple comparisons test): unit not given here; conditions: for tumor size compared to control-treated animals: CT26 subcutaneous tumors, athymic nude mice, two intratumoral injections (day 0, day 2), monitored six days, p <0.05; for tumor size compared to control-treated animals / signs of acute toxicity in tumor-bearing mice / survival of treated mice: 0.80 mg kg-1 pACP2283 or 0.51 mg kg-1 pACP1780; for Mean Diff, tumor volume growth, Control vs. peptide (Dunnett's multiple comparisons test): CT26 tumors in nude mice, intratumoral pACP1780 0.51 mg kg-1 or pACP2283 0.80 mg kg-1 on day 0 and day 2, six mice per group; for signs of acute toxicity in tumor-bearing mice / survival of treated mice: athymic nude mice with CT26 tumors, two intratumoral injections
Procedure: (§1) To evaluate the translational relevance of our methodology, we selected these two pACPs for in vivo studies. […] Subcutaneous tumors were established using CT26 cells in athymic nude mice, and the animals were randomized to receive two intratumoral injections of 0.80 mg kg^−1 pACP2283, 0.51 mg kg^−1 pACP1780, or PBS control on day 0 and day 2. The dosage of pACPs was calculated as five times the CC50 of each compound in CT26 cells. Tumor size was monitored daily for six days (Figure 3c).
Six‐week‐old female nude mice were obtained from Beijing HFK Bioscience Co., Ltd. and were acclimated to the laboratory environment for one‐week prior to the commencement of the experiments. All experimental procedures were conducted in a manner that minimized discomfort, distress, and pain to the animals. Mice were group‐housed, with a maximum of five animals per cage, under a light‐dark cycle of 12 h, with a constant temperature of 21–22°C and humidity of 55 ± 5%. They were provided with standard rodent chow and water ad libitum. The Ethics Committee of the Institute of Microbiology, Chinese Academy of Sciences approved all procedures (SQIMCAS2021005).
Murine colorectal carcinoma cell line CT26 was cultured in RPMI‐1640 medium supplemented with 10% fetal bovine serum and 1% penicillin/streptomycin at 37°C and 5% CO2. Tumor formation was induced by injecting was 5×106 ml^−1 CT26 cells into the right forelimb of each mouse. All mice were housed in the same environment with sufficient food and water. Throughout the study, the survival status and tumor progression of the mice on a daily basis were observed. The mice were randomly divided into three groups and received different treatments. CT26 cells were injected on […] for all groups. On Day 0, ACPs (pACP1780: 0.51 mg kg^−1 and pACP2283: 0.80 mg kg^−1) were intratumorally injected, while the Control group received an intratumoral injection of the same volume of PBS. On Day 2, the ACPs were intratumorally injected again, and the Control group received an injection of the same volume of PBS.

CT26 = assay: MTT concentration gradient and CC50 against CT26; format: cell-based, Murine; conditions: CT26 cells, calculated with aatbio IC50 calculator from the concentration gradient
Procedure: as §1
To evaluate the activity of the 40 potentially effective pACPs, a panel of 16 cancer cell lines was treated, including human CRC cell lines (HT29, Caco‐2, HCT116). Details of the cell lines used, respective media, and culture conditions were presented in Table S1 (Supporting Information). Once the cells reached 60% confluence, it was incubated with each candidate peptide at a concentration of 25 µM pACPs for 24 h. Concurrently, the complete medium was replaced with a maintenance medium containing only 1% FBS. Subsequently, the viability of each cell line using the MTT Cell Proliferation and Cytotoxicity Assay Kit according to the manufacturer's instructions was assessed. […] For the CRC cell line CT26, it was calculated the CC50 value using two peptides (pACP1780 and pACP2283) with relevant data presented in Table S6 (Supporting Information). […]

CT26 cells = assay: Transmission electron microscopy of treated CT26 cells; format: cell-based, Murine; conditions: 10× CC50, two hours, triplicate
Procedure: To explore the anticancer effects of pACP2283 and pACP1780 at the cellular level, we co‐cultured confluent CT26 cells with these pACPs.
Experiments were performed in triplicate with similar results, and a representative figure is shown. c) CD results for the two selected ACPs and the corresponding proportions of secondary structures calculated from CD data using CDNN. Purple represents the water phase, blue represents the represents the peptide mixed with a 20‐fold POPC lipid mixture, and grey represents the peptide mixed with a 20‐fold POPC+POPS lipid mixture.
First, CT26 cancer cells were treated with peptides pACP1780 and pACP2283 for two hours. The digested CT26 cancer cells were then resuspended in double‐strength fixative, which consisted of 2% (w/v) paraformaldehyde and 2.5% (v/v) glutaraldehyde in 10 mM HEPES buffer (pH 7.0). Subsequently, the cells were incubated for 2 h at room temperature on a roller and stored at 4°C. Afterward, the fixed cells were pre‐embedded with agar, subjected to four washes with 5 mM HEPES buffer (pH 7.0) (5 min per wash), and post‐fixed with 1% osmium tetroxide (OsO4) for 30 min. Following post‐fixation, the specimens were rinsed twice with water and dehydrated using an acetone series (5 min each; 30%, 50%, 70%, 85%, 90%, 3×5 min 100%). […]

HCT116 = assay: MTT primary screening of anticancer activity, HCT116; format: cell-based, Human; conditions: 25 µM pACP, 24 h, maintenance medium 1% FBS, ratio of viability to vehicle (PBS), at least three technical repetitions
How it was run: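 MTT read-out of cell survival after a 24 h peptide exposure at 25 µM final c[…]ntration. Medium was switched to 1% FBS maintenance medium at treatment, with cultures at 60% confluence.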

Row | Sequence | tumor size compared to control-treated animals (CT26 subcutaneous tumors) | Mean Diff, tumor volume growth, Control vs. peptide (Dunnett's multiple comparisons test) (CT26 subcutaneous tumors; Day 0) | Mean Diff, tumor volume growth, Control vs. peptide (Dunnett's multiple comparisons test) (CT26 subcutaneous tumors; Day 1) | Mean Diff, tumor volume growth, Control vs. peptide (Dunnett's multiple comparisons test) (CT26 subcutaneous tumors; Day 2) | Mean Diff, tumor volume growth, Control vs. peptide (Dunnett's multiple comparisons test) (CT26 subcutaneous tumors; Day 3) | Mean Diff, tumor volume growth, Control vs. peptide (Dunnett's multiple comparisons test) (CT26 subcutaneous tumors; Day 4) | Mean Diff, tumor volume growth, Control vs. peptide (Dunnett's multiple comparisons test) (CT26 subcutaneous tumors; Day 5) | signs of acute toxicity in tumor-bearing mice (CT26 subcutaneous tumors) | survival of treated mice (CT26 subcutaneous tumors) | CC50 (CT26) [µM] | cell membranes by transmission electron microscopy (CT26 cells) | Survival rate of cancer cells in primary screening (HCT116)
1 | RRFAWIGKLQSRKVRNNIRQYRTKIVRQMRRQIFRQMKQKAE [pACP1780] | significantly reduced tumor size | 0 | 0.4906 | 0.7153 | 0.6812 | 1.652 | 2.41 | no overt signs of acute toxicity were observed | all mice survived | 6.23 | disintegrated cell membranes | 0.29
2 | WWRRAERSVRRFFGTPIGPFPEIFGRRKAHKKKIIAKFDSVNG [pACP2283] | significantly reduced tumor size | 0 | 0.7285 | 1.385 | 1.698 | 2.95 | 3.362 | no overt signs of acute toxicity were observed | all mice survived | 10.56 | disintegrated cell membranes | 0.0645
